Patent US4713453A, “Oxabicycloheptane derivatives” (Suntori Limited, priority 1986, dated 1987)

How the values were obtained:
[1] = test system: scopolamine amnesia mouse; experiment: Anti-amnesia effect (scopolamine-induced retrograde amnesia), step-through passive avoidance; type: in vivo, mouse (male ddY); conditions: ip, 24 h, significant prolongation of step-through latency, intraperitoneal, scopolamine 0.5 mg/kg s.c., read-out: Minimum effective amount
Method: 6a. Anti-amnesia effect (i.e., capability of preventing scopolamine-inducedretrograde amnesia)
Five-week old male ddY weighing 25-30 g were used in groups each consisting of 10 animals. Memory retention deficit induced by scopolamine was evaluated by two-compartment step-through passive avoidance task. […] The floor of the dark compartment was provided with a current-conducting grid.
The experimental method was as follows. A scopolamine amnesia mouse that had been given subcutaneous injection of 0.5 mg/kg of an aqueous solution of scopolamine borate 20 minutes before was placed in the light compartment and when its forefeet touched the grid floor of the dark compartment, a current of 0.6 mA was applied to give a foot shock to the mouse (acquired conation). Immediately thereafter, a selected test compound or a control (physiological saline solution) was administered intraperitoneally. Twenty-four hours later, the mouse was replaced in the light compartment and the step-through latency, or the time required for the mouse to move to the dark compartment, was measured for a period of up to 300 seconds (test conation). The minimum effective amount of the test compound that provided a significant prolongation of the step-through latency over the control was determined.

[2] = test system: Male ddY mice; experiment: Anti-cerebroischemic effect (brain protection after ischemia by decapitation): gasping time; type: in vivo, mouse (male ddY); conditions: intraperitoneal, 30 min before decapitation
Method: 1. Anti-cerebroischemic effect (i.e., brain protection after ischemia by decapitation)
Male ddY mice weighing 22-30 g were used in groups each consisting of 6 animals. Test compounds were administered intraperitoneally to the mice which were decapitated 30 minutes after the administration. The gasping time, or the duration of time between the onset of panting after decapitation and its cessation, was measured, and this was compared with the gasping time for a control group which were given only a liquid vehicle.

[3] = test system: peroxylipid formation; experiment: Anti-lipidperoxidation effect (TBA assay of malondialdehyde in rat brain homogenate); type: biochemical, rat (male Wistar); conditions: for Inhibition of peroxylipid formation: 10 μl (10^-4 M) test compound in 990 μl sample, 37° C., 30 minutes, pH 7.4; for anti-lipidperoxidation effects: rat brain homogenate
Method: 3. Anti-lipidperoxidation effect
Male Wistar rats weighing 200-250 g were used. The brain of each rat was extracted after decapitation, homogenized with 50 mM of a phosphate buffer solution (PBS, pH 7.4) and centrifuged at 1,000 g for 15 minutes. The supernatant was stored frozen at -30° C. Before use, it was thawed under flowing water and diluted with PBS three-fold to prepare a live sample.
Two samples were prepared by adding 10 μl (10^-4 M) of a test compound in solution to 990 μl of the live sample. One sample was incubated at 37° C. for 30 minutes and reaction was quenched by addition of 0.2 ml of 35% aqueous perchloric acid. The other sample was immediately mixed with 35% perchloric acid without incubation. Each of the mixtures was centrifuged at 3,000 rpm for 15 minutes and 0.5 ml of the supernatant was subjected to TBA assay (Yagi et al., Anal. Biochem., 95, 351 (1979)) for determining the malondialdehyde (MDA) content (×10^-4 M) by subtracting the peroxylipid level for the unincubated mixture from that for the incubated mixture. The percent inhibition of peroxylipid formation was calculated by the following formula: [formula] where A is the MDA content of a treated sample and B is the value for a control sample that was not treated with any test compound.

[4] = test system: Male ddY mice; experiment: Anti-hypoxia effect (brain protection in low-oxygen state after evacuation): survival time; type: in vivo, mouse (male ddY); conditions: intraperitoneal, 180 mmHg
Method: 2. Anti-hypoxia effect (i.e., […] protection in low-oxygen state after evacuation)
Male ddY m8mice weighing 22-30 g were used in groups each consisting of 7-10 animals. The mice were placed in a desiccator (capacity: ca. 1,000 ml) which was evacuated with a vacuum pump to an internal pressure of 180 mmHg after intraperitoneal administration of test compounds. The survival time, or the duration of time between the start of evacuation and the cessation of breathing, was measured, and this was compared with the value for a vehicle group. Any survival time longer than a period of 15 minutes after application of a hypoxia load was counted as 15 minutes.

| Structure (SMILES) | prolongation of gasping time ([2]; 25 mg/kg) | Inhibition of peroxylipid formation [3] [%] | prolongation of survival time ([4]; 12.5 mg/kg) | also measured |
| --- | --- | --- | --- | --- |
| CN(C)CCCCCON=C1c2ccccc2OC2(c3ccccc3)CC12 (stereo not shown) [Example 21, 3,4-Benzo-5-(5-dimethylaminopentyl)oxyimino-1-phenyl-2-oxabicyclo[4.1.0]heptane] | significantly prolonging the gasping time | 62.1 | significantly prolonging the survival time | minimal effective dose [1]: 25 mg/kg; prolongation of gasping time ([2]; 12.5 mg/kg): significant prolongation of the gasping time |
| CC(CON=C1c2ccccc2OC2(c3ccccc3)CC12)CN(C)C (stereo not shown) [Example 4, 3,4-Benzo-5-(3-dimethylamino-2-methylpropyl)-oxyimino-1-phenyl-2-oxabicyclo[4.1.0]heptane] | – | 56.0 | significantly prolonging the survival time | – |
| COc1ccc2c(c1)OC1(c3ccccc3)CC1C2OCCN(C)C (stereo not shown) [Example 28, 3,4-(3-Methoxybenzo)-5-(2-dimethylaminoethyl)oxy-1-phenyl-2-oxabicyclo[4.1.0]heptane] | significantly prolonging the gasping time | 77.6 | – | minimal effective dose [1]: 12.5 mg/kg; prolongation of gasping time ([2]; 12.5 mg/kg): significant prolongation of the gasping time |
| CN(C)CCON=C1c2ccc(Cl)cc2OC2(c3ccccc3)CC12 (stereo not shown) [Example 8, 3,4-(3-Chlorobenzo)-5-(2-dimethylaminoethyl)oxaimino-1-phenyl-2-oxabicyclo[4.1.0]heptane] | significantly prolonging the gasping time | 90.2 | – | anti-lipidperoxidation effects [3]: strong anti-lipidperoxidation effects |
| CN(C)CCCON=C1c2ccc(Cl)cc2OC2(c3ccc([N+](=O)[O-])cc3)CC12 (stereo not shown) [Example 12, 3,4-(3-Chlorobenzo)-5-(3-dimethylaminopropyl)oxyimino-1-(4-nitrophenyl)-2-oxabicyclo[4.1.0]heptane] | – | 99.0 | – | anti-lipidperoxidation effects [3]: strong anti-lipidperoxidation effects |
| CN(C)CCCON=C1c2ccccc2OC2(c3cccs3)CC12 (stereo not shown) [Example 11, 3,4-Benzo-5-(3-dimethylaminopropylo)xyimino-1-thienyl-2-oxabicyclo[4.1.0]heptane] | – | – | significantly prolonging the survival time | – |
| CCN(CC)CCCON=C1c2ccccc2OC2(c3ccccc3)CC12 (stereo not shown) [Example 16] | – | 83.3 | – | anti-lipidperoxidation effects [3]: strong anti-lipidperoxidation effects |
| CN(C)CCCOC1c2ccc(Cl)cc2OC2(c3ccccc3)CC12 (stereo not shown) [Example 27, 3,4-(3-Chlorobenzo)-5-(3-dimethylaminopropyl)oxy-1-phenyl-2-oxabicyclo[4.1.0]heptane] | significantly prolonging the gasping time | 62.0 | – | prolongation of gasping time ([2]; 12.5 mg/kg): significant prolongation of the gasping time |
| CN(C)CCCOC1c2ccccc2OC2(c3ccccc3)CC12 (stereo not shown) [Example 24, 3,4-Benzo-5-(3-dimethylaminopropyl)oxy-1-phenyl-2-oxabicyclo[4.1.0]heptane] | significantly prolonging the gasping time | – | – | prolongation of gasping time ([2]; 12.5 mg/kg): significant prolongation of the gasping time |
| CN(C)CCOC1c2ccc(Cl)cc2OC2(c3ccccc3)CC12 (stereo not shown) [Example 26, 3,4-(3-Chlorobenzo)-5-(2-dimethylaminoethyl)oxy-1-phenyl-2-oxabicyclo[4.1.0]heptane] | significantly prolonging the gasping time | 79.1 | – | – |
| CN(C)CCCCCCOC1c2ccccc2OC2(c3ccccc3)CC12 (stereo not shown) [Example 31] | – | – | significantly prolonging the survival time | prolongation of survival time ([4]; 6.25 mg/kg or smaller): significant prolongation of the survival time |
| CN(C)CCCON=C1c2ccc(O)cc2OC2(c3ccccc3)CC12 (stereo not shown) [Example 34, 3,4-(3-Hydroxybenzo)-5-(3-dimethylaminopropyl)oxyimino-1-phenyl-2-oxabicyclo[4.1.0]heptane] | – | 79.9 | – | – |
| CN(C)CCCCOC1c2ccccc2OC2(c3ccccc3)CC12 (stereo not shown) [Example 30, 3,4-Benzo-5-(4-dimethylaminobutyl)oxy-1-phenyl-2-oxabicyclo[4.1.0]heptane] | significantly prolonging the gasping time | – | significantly prolonging the survival time | minimal effective dose [1]: 12.5 mg/kg; prolongation of survival time ([4]; 6.25 mg/kg or smaller): significant prolongation of the survival time |
| CN(C)CCCCON=C1c2ccccc2OC2(c3ccccc3)CC12 (stereo not shown) [Example 19, 3,4-Benzo-5-(4-dimethylaminobutyl)oxyimino-1-phenyl-2-oxabicyclo[4.1.0]heptane] | – | 52.6 | – | – |
| COc1ccc2c(c1)OC1(c3ccccc3)CC1C2=NOCCN(C)C (stereo not shown) [Example 7, 3,4-(3-Methoxybenzo)-5-(2-dimethylaminoethyl)oxyimino-1-phenyl-2-oxabicyclo[4.1.0]heptane] | significantly prolonging the gasping time | – | – | minimal effective dose [1]: 20 mg/kg |
| CN(C)CCCOC1c2ccc(O)cc2OC2(c3ccccc3)CC12 (stereo not shown) [Example 35, 3,4-(3-Hydroxybenzo)-5-(3-dimethylaminopropyl)oxy-1-phenyl-2-oxabicyclo[4.1.0]heptane] | – | 69.0 | – | – |
| CNCCCON=C1c2ccccc2OC2(c3ccccc3)CC12 (stereo not shown) [Example 15, 3,4-Benzo-5-(3-methylaminopropyl)oxyimino-1-phenyl-2-oxabicyclo[4.1.0]heptane] | – | 85.7 | significantly prolonging the survival time | anti-lipidperoxidation effects [3]: strong anti-lipidperoxidation effects |
| CN(C)CCON=C1c2ccccc2OC2(c3ccccc3)CC12 (stereo not shown) [Example 1, 3,4-Benzo-5-(2-dimethylaminoethyl)oxyimino-1-phenyl-2-oxabicyclo[4.1.0]heptane] | significantly prolonging the gasping time | 56.9 | – | – |
| CNCCCCON=C1c2ccccc2OC2(c3ccccc3)CC12 (stereo not shown) [Example 20, 3,4-Benzo-5-(4-methylaminobutyl)oxyimino-1-phenyl-2-oxabicyclo[4.1.0]heptan] | significantly prolonging the gasping time | – | – | – |
| CN(C)CCOC1c2ccccc2OC2(c3ccccc3)CC12 (stereo not shown) [Example 23, 3,4-Benzo-5-(2-dimethylaminoethyl)oxy-1-phenyl-2-oxabicyclo[4.1.0]heptane] | significantly prolonging the gasping time | – | – | minimal effective dose [1]: 50 mg/kg; prolongation of gasping time ([2]; 12.5 mg/kg): significant prolongation of the gasping time |
| c1ccc(C23CC2C(=NOCCC24CCCN2CCC4)c2ccccc2O3)cc1 (stereo not shown) [Example 5, 3,4-Benzo-5-(2-pyrrolizidin-8-ylethyl)oxyimino-1-phenyl-2-oxabicyclo[4.1.0]heptane] | – | 96.5 | significantly prolonging the survival time | anti-lipidperoxidation effects [3]: strong anti-lipidperoxidation effects |
| CN(C)CCCON=C1c2ccc(Cl)cc2OC2(c3ccccc3)CC12 (stereo not shown) [Example 9] | significantly prolonging the gasping time | 82.7 | – | anti-lipidperoxidation effects [3]: strong anti-lipidperoxidation effects |
